What all share (assay type): functional, cell-based
Assay [1] deals with A549. The assay is described as follows: Cytotoxicity against human A549 cells assessed as cell viability at 200 nM compound X-irradiated under aerobic conditions measured after 72 hrs by WST-8 assay. In general terms: Tetrazolium assays rely on reduction of a dye to a coloured formazan, in cell work by metabolically active cells.
Assay [2] deals with A549. The assay is described as follows: Cytocidal activity against human A549 cells assessed as cell viability at 200 nM compound X-irradiated under hypoxic conditions measured after 72 hrs by WST-8 assay.
Assay [3] has as its system A549. The assay is described as follows: Cytotoxicity against human A549 cells assessed as cell viability under hypoxic condition at 100 nM after 72 hrs by WST-8 assay.
Assay [4] has as its system A549. The assay is described as follows: Cytotoxicity against human A549 cells assessed as cell viability after 72 hrs by WST-8 assay. As to conditions: A549, 72 h.

The source made the active and inactive calls. No cut-off for these calls is given here.

What is called IC50 is the concentration that inhibits the measured activity by half. `[N-]=[N+]=NCn1c(=O)c(F)cn([C@H]2C[C@H](O)[C@@H](CO)O2)c1=O`: the result in the assay on A549 [1], with A549 [2] and in the assay with A549 [3] was inactive. Moreover, the IC50 with A549 [4] came out at 1470 nM.
In the case of `O=c1[nH]c(=O)n([C@H]2C[C@H](O)[C@@H](CO)O2)cc1F` [FLOXURIDINE], the IC50 in the assay with A549 [4] was 47 nM.

The record behind these values is ChEMBL document CHEMBL1949542, “Reductive activation of 5-fluorodeoxyuridine prodrug possessing azide methyl group by hypoxic X-irradiation” (Bioorg Med Chem Lett, 2012).
